Measurements published in patent US7772180B2, “Hepatitis C virus inhibitors” (Bristol-Myers Squibb Company, priority 2006, dated 2010).
pEC50, pIC50: −log10 of the molar value. Like-named read-outs stand apart in the source and are kept apart here.

What was measured:
[1] = system: HCV replicon (strain 1b) in HUH-7 cells; assay: HCV replicon FRET assay; format: cell-based, Hepatitis C virus; settings: Hepatitis C virus, Huh-7, read-out: HCV Pro Replicon (EC50), HCV replicon cell assay
[2] = biological target: T1, HCV NS3/4A protease complex, BMS strain (UniProt P27958, species not given/STRAIN_BMS); assay: FRET peptide assay to monitor HCV NS3/4A proteolytic activity (BMS strain); format: biochemical, Hepatitis C virus (genotype 1a); settings: read-out: HCV Protease (IC50), NS3/4A BMS strain
T1 construct: other: NS3/4A BMS strain; activity range class; numeric values, unit not given; said of H77 and J4L6S; fused on or other part: A three-lysine solubilising tail at the C-terminus of NS4A; A His tag is implied by the pET21b vector and Ni-NTA purification; Both are printed for the H77 and J4L6S constructs and apply to BMS by inference
T1 sequence (P27958 1027-1657, change not shown, one chain of several): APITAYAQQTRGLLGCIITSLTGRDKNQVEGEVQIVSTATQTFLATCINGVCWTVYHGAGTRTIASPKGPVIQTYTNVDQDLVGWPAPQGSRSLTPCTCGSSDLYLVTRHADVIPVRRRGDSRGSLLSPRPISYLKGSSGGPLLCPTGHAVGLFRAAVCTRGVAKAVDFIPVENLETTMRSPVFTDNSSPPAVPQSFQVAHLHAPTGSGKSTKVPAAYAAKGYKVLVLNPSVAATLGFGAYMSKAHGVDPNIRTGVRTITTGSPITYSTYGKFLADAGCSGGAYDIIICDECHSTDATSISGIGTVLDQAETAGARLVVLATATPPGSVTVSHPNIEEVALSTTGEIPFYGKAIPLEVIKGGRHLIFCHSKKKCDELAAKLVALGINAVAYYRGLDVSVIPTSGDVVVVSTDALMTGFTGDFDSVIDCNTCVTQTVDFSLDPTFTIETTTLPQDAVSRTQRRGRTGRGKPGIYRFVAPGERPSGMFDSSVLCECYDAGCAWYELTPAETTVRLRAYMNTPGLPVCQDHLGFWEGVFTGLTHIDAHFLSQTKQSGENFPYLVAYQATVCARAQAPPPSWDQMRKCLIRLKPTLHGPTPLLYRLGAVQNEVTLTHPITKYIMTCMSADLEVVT
Outline: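 Inhibition measured by real-time fluorescence increase as the protease cleaves RET S1 FRET depsipeptide (2 μM final). Enzyme: >90% pure BMS-strain (1a) NS3/4A at 2-3 nM final, or 300 pM with 50 μg/ml BSA for potent compounds. Buffer: 50 mM HEPES pH 7.5, 0.15 M NaCl, 0.1% Triton, 15% glycerol, 10 mM βME.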

Row | Structure (SMILES) | pEC50 ([1]; activity range class) | pIC50 ([2]; activity range class) | pEC50 ([1]; numeric values, unit inferred) | pIC50 ([2]; numeric values, unit inferred)
1 | C=C[C@@H]1C[C@]1(NC(=O)[C@@H]1C[C@@H](Oc2nccc3cc(OC)ccc23)CN1C(=O)[C@H](Nc1cc(C)cc(C)n1)C(C)(C)C)C(=O)NS(=O)(=O)C1CC1 [14 second isomer, N-(4,6-dimethyl-2-pyridinyl)-3-methyl-D-valyl-(4R)—N-((1R,2S)-1-((cyclopropylsulfonyl)carbamoyl)-2-vinylcyclopropyl)-4-((6-methoxy-1-isoquinolinyl)oxy)-L-prolinamide] | 6.00 to 7.00 | < 6.70 |  | 
2 | C=C[C@@H]1C[C@]1(NC(=O)[C@@H]1C[C@@H](Oc2ncc(OC)c3ccc(Cl)cc23)CN1C(=O)C(Nc1cncc(C(F)(F)F)c1)C(C)(C)C)C(=O)NS(=O)(=O)C1CC1 (single isomer, unassigned) [Compound 27A] |  |  | 8.39 | 8.52
3 | C=C[C@@H]1C[C@]1(NC(=O)[C@@H]1C[C@@H](Oc2nc(N(C)C)cc3cc(OC)ccc23)CN1C(=O)C(Nc1ccccc1)C(C)(C)C)C(=O)NS(=O)(=O)C1CC1 (single isomer, unassigned) [Compound 19B] |  |  | 5.73 | 6.00
4 | C=C[C@@H]1C[C@]1(NC(=O)[C@@H]1C[C@@H](Oc2nc(OC)cc3cc(OC)ccc23)CN1C(=O)C(Nc1cc(C)cc(C)n1)C(C)C)C(=O)NS(=O)(=O)C1CC1 (stereo partly drawn) [Compound 21, N-(4,6-dimethyl-2-pyridinyl)valyl-(4R)—N-((1R,2S)-1-((cyclopropylsulfonyl)carbamoyl)-2-vinylcyclopropyl)-4-((3,6-dimethoxy-1-isoquinolinyl)oxy)-L-prolinamide] | 7.00 to 8.52 | 7.70 to 9.22 |  | 
5 | C=C[C@@H]1C[C@]1(NC(=O)[C@@H]1C[C@@H](Oc2nccc3cc(OC)ccc23)CN1C(=O)[C@@H](Nc1cc(C)cc(C)n1)C(C)(C)C)C(=O)NS(=O)(=O)C1CC1 [14 first isomer, N-(4,6-dimethyl-2-pyridinyl)-3-methyl-L-valyl-(4R)—N-((1R,2S)-1-((cyclopropylsulfonyl)carbamoyl)-2-vinylcyclopropyl)-4-((6-methoxy-1-isoquinolinyl)oxy)-L-prolinamide] | 7.00 to 8.52 | 7.70 to 9.22 |  | 
6 | C=C[C@@H]1C[C@]1(NC(=O)[C@@H]1C[C@@H](Oc2ncc(OC)c3ccc(Cl)cc23)CN1C(=O)[C@@H](Nc1cccc(C(=O)OC)c1)C(C)(C)C)C(=O)NS(=O)(=O)C1CC1 [232 first isomer, N-(3-(methoxycarbonyl)phenyl)-3-methyl-L-valyl-(4R)-4-((7-chloro-4-methoxy-1-isoquinolinyl)oxy)-N-((1R,2S)-1-((cyclopropylsulfonyl)carbamoyl)-2-vinylcyclopropyl)-L-prolinamide] | 7.00 to 8.52 | 7.70 to 9.22 |  | 
